Data as given in article PMC11215307, “Targeting dermatophyte Cdc42 and Rac GTPase signaling to hinder hyphal elongation and virulence” (iScience, 2024).
Entries after “also recorded” stand apart in the source; their conditions may differ.

Legend:
[1] = tested on: T. rubrum conidial germination; experiment: T. rubrum conidia germination assay; format: cell-based, Trichophyton rubrum; settings: for Effect on conidial germination in T. rubrum: in cellulo screen of small GTPase inhibitors; for IC50: overnight incubation at 28°C in Sabouraud medium, calcofluor white staining
Experimental: Fungal conidia (2 × 10^6) were subjected to an overnight incubation at 28°C in Sabouraud medium, supplemented with 1% DMSO (control) or the Rac and/or Cdc42 inhibitors; 10, 32, and 100 μM EHop-016; 100, 320, and 1000 μM AZA1; 10, 32, and 100 μM EHT1864; 10, 100, and 1000 μM CASIN; 200, 500, and 1000 μM NSC23766; 20, 200, and 2000 μM ketorolac; 100 μM MBQ-167; 1 and 10 μM ML-141; 1000 μM ZCL278; and 50 μM ITX3. Following the incubation, the fungal conidia were washed twice with saline and then stained with 0.2 mM calcofluor white. The germinated and ungerminated conidia were subsequently observed and counted under a fluorescent microscope (Olympus BX53).

[2] = tested on: T. rubrum mycelial growth; experiment: Mycelial growth inhibition on modified 1/10 Sabouraud glucose agar; format: cell-based, Trichophyton rubrum; settings: in cellulo screen of small GTPase inhibitors
Experimental: Trichophyton rubrum CBS118892, Escherichia coli BL21, and Agrobacterium tumefaciens EHA105 were used.[74]^,[78]^,[79] E. coli BL21 was cultured in LB medium with appropriate antibiotics at 37°C. A. tumefaciens was cultured in LB or Agrobacterium induction medium supplemented with 0.2 mM acetosyringone at 28°C.[73] T. rubrum was cultured at 28°C. Conidia of T. rubrum were prepared using a previously described method.[80] Sabouraud agar or RPMI with MOPS agar was used for hyphal formation. To evaluate mycelial growth inhibition by inhibitors, a modified 1/10 Sabouraud glucose agar (containing 0.2% bacto peptone, 0.1% glucose, 0.1% KH2PO4, 0.1% MgSO4 7H2O, 1.5% bacto agar, pH unadjusted) was used.

TrCdc42 = experiment: Guanine nucleotide exchange assay of TrCdc42-His promoted by TrCdc24 DH-PH (bodipy-FL GTP fluorescence); format: biochemical, Trichophyton rubrum; settings: for IC50: guanine nucleotide exchange of TrCdc42 by TrCdc24, fluorescence at 60 min; for Selectivity between fungal Cdc42 and Rac: comparison of TrCdc42 and TrRac IC50 (Table 1)
Experimental: (§1) One μM of TrRac or TrCdc42-His was mixed with 0.1 μM bodipy-FL GTP (Thermo Fisher, Waltham, MA, USA) in Buffer A and allowed to equilibrate for 3 min at 20°C–25°C. Ammonium sulfate, EDTA, or recombinant TrCdc24 DH-PH proteins were incubated with the compounds or vehicles alone (final DMSO concentration: 1%) at the indicated concentrations in the reaction buffer for 20 min at room temperature. The reaction was initiated by combining TrRac or TrCdc42/bodipy-FL GTP (100 μL) with Cdc24DH-PH (50 μL) at room temperature. The change in bodipy-FL-GTP fluorescence (excitation: 485 nm, emission: 535 nm) was monitored for 60 min using a Berthold tristar2 LB942.
(§2) Statistical analyses were conducted using Microsoft Excel and Prism 10, GraphPad. All experiments were performed more than three times. Statistical significance was determined using Student’s t test, one-way analysis of variance, and Tukey–Kramer test. IC50 values were ascertained by plotting the fluorescent intensity (% of control) at 60 min using a specific formula: IC50=x2−(x2/x1)^(50−y2/y2−y1)

TrRac = experiment: Guanine nucleotide exchange assay of TrRac promoted by TrCdc24 DH-PH (bodipy-FL GTP fluorescence); format: biochemical, Trichophyton rubrum; settings: fluorescence at 60 min
Experimental: as §1, §2

T. rubrum = experiment: Invertebrate (silkworm) infection model of dermatophytosis; format: in vivo, Bombyx mori; settings: conidia (5 × 10^6) injected into silkworm hemolymph
Experimental: Eggs from silkworms were procured from Ehime-Sansh Co., Ltd. (Japan) and reared following a method described previously.[86]^,[87] Fifth instar silkworm larvae were nourished with an artificial diet (Silkmate 2S; Ehime-Sanshu Co., Ltd., Japan) overnight.[88]^,[89] Dermatophyte infection was conducted in accordance with a previously outlined procedure.[53] Conidia (5 × 10^6) of T. rubrum were injected into the silkworm hemolymph.

[3] = tested on: T. rubrum growth on human nail fragments; experiment: In vitro nail infection assay; format: cell-based, Trichophyton rubrum; settings: 2.6% (60 mM) EHop-016, four applications every 24 h, observed after 36 days at 28°C, versus vehicle
Experimental: The conidial suspension (1 × 10^4/10 μL/nail fragment) of T. rubrum was administered to autoclaved nail fragments obtained from an adult volunteer (ethics approval, No. R3-6, Musashino University, Japan) and incubated at 28°C. After 24 h, either the vehicle (30% DMSO/5% Tween 80) or 60 mM EHop-016 was applied to the nail fragment. A total of four applications were administered every 24 h. The nails were examined after 36 days of incubation.

| Molecule | Effect on conidial germination in T. rubrum [1] | Effect on mycelial growth in T. rubrum [2] | IC50 (TrCdc42) [µM] | IC50 (TrRac) [µM] | IC50 [1] [µM] | IC50 ([1]; Trichophyton rubrum) [µM] | Selectivity between fungal Cdc42 and Rac (TrCdc42) | Inhibitory activity in conidial germination inhibition assay ([1]; at 100 μM) | Survival of silkworms infected with T. rubrum (T. rubrum) | T. rubrum growth on human nails [3] |
| --- | --- | --- | --- | --- | --- | --- | --- | --- | --- | --- |
| NAV2729 | did not | did not |  |  |  |  |  |  |  |  |
| COc1ccc(C2CC(c3ccccc3)=NN2c2ccc(S(N)(=O)=O)cc2)cc1 (centres unmarked) [ML-141] |  |  | > 1000 | > 1000 | 1.7 |  |  |  |  |  |
| CCN(CC)CCCC(C)Nc1nc(C)cc(Nc2ccc3nc(C)cc(N)c3c2)n1 (centres unmarked) [NSC23766] | hindered | hindered | 368 | 477 |  | 640 |  |  |  |  |
| O=c1cc(CN2CCOCC2)occ1OCCCCCSc1ccnc2cc(C(F)(F)F)ccc12 [EHT1864] | hindered | hindered | 154 | > 1000 |  | 16 | higher selectivity for Cdc42 than for Rac |  |  |  |
| CCn1c2ccccc2c2cc(-n3nncc3-c3ccccc3)ccc21 [MBQ-167] |  |  | > 100 | > 100 |  | > 100 |  | did not show any inhibitory activity |  |  |
| Rhosin | did not | did not |  |  |  |  |  |  |  |  |
| OCCNC1CCCc2c1[nH]c1ccc(-c3ccccc3)cc21 (centres unmarked) [CASIN] |  |  | 192 | 518 | 20 |  |  |  |  |  |
| CCn1c2ccccc2c2cc(Nc3ccnc(NCCCN4CCOCC4)n3)ccc21 [EHop-016] |  |  | 40 | 137 |  | 45 | higher selectivity for Cdc42 than for Rac |  | significantly extended the survival | no fungal lawn was observed; also recorded: lesser T. rubrum growth on the nails |
| Cc1cc2cc(Nc3ccnc(Nc4ccc5[nH]c(C)cc5c4)n3)ccc2[nH]1 [AZA1] | hindered | hindered | 147 | 127 |  | 127 |  |  |  |  |
| O=C(c1ccccc1)c1ccc2n1CCC2C(=O)O (centres unmarked) [Ketorolac] |  |  | 889 | 1420 |  | 363 |  |  |  |  |
| Cc1cc(C)nc(NS(=O)(=O)c2ccc(NC(=S)NC(=O)COc3ccc(Br)cc3Cl)cc2)n1 [ZCL278] |  |  | > 1000 | > 1000 | > 1000 |  |  |  |  |  |
| Cc1cc(/C=c2/sc3nc4ccccc4n3c2=O)c(C)n1-c1ccccc1 [ITX3] |  |  | > 50 | > 50 | > 50 |  |  |  |  |  |
| C[C@H]1CCC/C=C/[C@@H]2C[C@H](O)C[C@H]2[C@H](O)/C=C/C(=O)O1 [Brefeldin A] | did not | did not |  |  |  |  |  |  |  |  |
